How the values were obtained:
large (Lg) crabgrass = experiment: Test C postemergence; format: in vivo, Digitaria sanguinalis; conditions: Digitaria sanguinalis, post-emergence
Method in brief: (§1)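 Greenhouse herbicide screen. Pre: seeded loam/sand, sprayed at planting. Post: 1–4 leaf plants (2–18 cm) in peat-based mix. Formulation: solvent mixture + surfactant, non-phytotoxic. Readout: visual % control vs untreated, 13–15 d; dash = not tested.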

barnyardgrass [1] = experiment: Test B flooded paddy test; format: in vivo, Echinochloa crus-galli; conditions: Echinochloa crus-galli; Flood, 250 g ai/ha; 0 to 100 scale where 0 is no effect and 100 is complete control; read-out: Plant response rating, Barnyardgrass
Method in brief: (§2)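 Visual ratings on a 0 to 100 scale, where 100 means complete control, compared treated plants with controls after 13 to 15 days in a greenhouse. Treatment went into paddy water 3 cm deep over the soil, applied to plants at the 2-leaf stage.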

yellow nutsedge = experiment: Test C postemergence; format: in vivo, Cyperus esculentus
Text: (§3) Seeds of plant species selected from blackgrass (Alopecurus myosuroides), Italian ryegrass (Lolium multiflorum), wheat, winter (winter wheat, Triticum aestivum), galium (catchweed bedstraw, Galium aparine), corn (Zea mays), large (Lg) crabgrass (Digitaria sanguinalis), giant foxtail (Setaria faberii), johnsongrass (Sorghum halepense), lambsquarters (Chenopodium album), morningglory (Ipomoea coccinea), yellow nutsedge (Cyperus esculentus), pigweed (Amaranthus retroflexus), ragweed (common ragweed, Ambrosia elatior), soybean (Glycine max), barnyardgrass (Echinochloa crus-galli), oilseed rape (Brassica napus), waterhemp (common waterhemp, Amaranthus rudis), kochia (Kochia scoparia), wild oat (Avena fatua), surinam grass (Brachiaria decumbens), foxtail, green (green foxtail, Setaria viridis), goosegrass (Eleusine indica), bromegrass, downy (downy bromegrass, Bromus tectorum), nightshade (eastern black nightshade, Solanum ptycanthum), cocklebur (common cocklebur, Xanthium strumarium), cupgrass, woolly (woolly cupgrass, Eriochloa villosa), bermudagrass (Cynodon dactylon), sunflower, (common oilseed sunflower, Helianthus annuus), Russian thistle (Salsola kali), and velvetleaf (Abutilon theophrasti) were planted into a blend of loam soil and sand and treated preemergence with test chemicals formulated in a non-phytotoxic solvent mixture which included a surfactant.
(§4) At the same time, plants selected from these crop and weed species and also barley, winter (winter barley, Hordeum vulgare), windgrass (Apera spica-venti), chickweed (common chickweed, Stellaria media), deadnettle (henbit deadnettle, Lamium amplexicaule), and canarygrass (littleseed canarygrass, Phalaris minor) were planted in pots containing Redi-Earth® planting medium (Scotts Company, 14111 Scottslawn Road, Marysville, Ohio 43041) comprising spaghnum peat moss, vermiculite, wetting agent and starter nutrients and treated with postemergence applications of test chemicals formulated in the same manner. Plants ranged in height from 2 to 18 cm (1- to 4-leaf stage) for postemergence treatments. Treated plants and controls were maintained in a greenhouse for 13 to 15 days, after which time all species were compared to controls and visually evaluated. Plant response ratings, summarized in Table C, are based on a scale of 0 to 100 where 0 is no effect and 100 is complete control. A dash (-) response means no test result.

barnyardgrass [2] = experiment: Test A postemergence; format: in vivo, Echinochloa crus-galli; conditions: Echinochloa crus-galli, post-emergence, 240 h, 1000 g ai/ha, 0 to 100 scale, 0 no effect, 100 complete control, read-out: Plant response rating Barnyardgrass
Method in brief: (§5)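 Visual injury scored 0–100 (100 = complete control) against untreated controls about 10 days after treatment in a greenhouse. Test chemicals, formulated with surfactant in non-phytotoxic solvent, were sprayed on soil preemergence or on 2-10 cm, one- to two-leaf plants postemergence.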

lambsquarters = experiment: Test C postemergence; format: in vivo, Chenopodium album
Method in brief: as §1

morningglory = experiment: Test C postemergence; format: in vivo, Ipomoea coccinea
Method in brief: as §1

pigweed = experiment: Test A postemergence; format: in vivo, Amaranthus retroflexus; conditions: Amaranthus retroflexus, post-emergence, 240 h, 1000 g ai/ha, 0 to 100 scale, 0 no effect, 100 complete control, read-out: Plant response rating Pigweed
Method in brief: as §5

rice = experiment: Test B flooded paddy test; format: in vivo, Oryza sativa; conditions: Oryza sativa; Flood, 250 g ai/ha; 0 to 100 scale where 0 is no effect and 100 is complete control; read-out: Plant response rating, Rice
Method in brief: as §2

barnyardgrass [3] = experiment: Test A preemergence; format: in vivo, Echinochloa crus-galli; conditions: Echinochloa crus-galli, pre-emergence, 240 h, 1000 g ai/ha, 0 to 100 scale, 0 no effect, 100 complete control, approx. 10 days, read-out: Barnyardgrass plant response rating
Method in brief: as §5

wild oat = experiment: Test C postemergence; format: in vivo, Avena fatua
Text: as §3, §4

sedge, umbrella = experiment: Test B flooded paddy test; format: in vivo, Cyperus difformis; conditions: Cyperus difformis, Flood, 250 g ai/ha; 0 to 100 scale where 0 is no effect and 100 is complete control; read-out: Plant response rating, Sedge, Umbrella
Method in brief: as §2

chickweed = experiment: Test C postemergence; format: in vivo, Stellaria media; conditions: Stellaria media, post-emergence
Method in brief: as §1

barnyardgrass [4] = experiment: Test C postemergence; format: in vivo, Echinochloa crus-galli; conditions: Echinochloa crus-galli, post-emergence
Text: as §3, §4

giant foxtail = experiment: Test C postemergence; format: in vivo, Setaria faberii; conditions: Setaria faberi, post-emergence
Method in brief: as §1

[5] = 31 g ai/ha, postemergence, visual rating, scale 0 to 100 (0 no effect, 100 complete control), 13 to 15 days

Clc1cnc(Oc2ccccc2-n2cc(C3CC3)nn2)nc1 [Compound 160, 5-chloro-2-[2-(4-cyclopropyl-1H-1,2,3-triazol-1-yl)phenoxy]pyrimidine]
pest or weed control at 16 g/ha (large (Lg) crabgrass; 16 g ai/ha, postemergence, 0 is no effect, 100 is complete control, read-out: Plant response rating (0 to 100), Crabgrass, Large): 5% | pest or weed control at 31 g/ha (large (Lg) crabgrass; 31 g ai/ha, postemergence, visual rating, scale 0 to 100 (0 no effect, 100 complete control), 13 to 15 days, read-out: Crabgrass, Large plant response rating): 5% | pest or weed control at 125 g/ha (large (Lg) crabgrass; 125 g ai/ha, postemergence, visual rating, scale 0 to 100 (0 no effect, 100 complete control), read-out: Plant response rating, Crabgrass, Large): 10% | pest or weed control at 62 g/ha (large (Lg) crabgrass; Postemergence, 62 g ai/ha, scale 0 to 100 (0 no effect, 100 complete control), read-out: Plant response rating, Crabgrass, Large): 5% | pest or weed control at 250 g/ha (barnyardgrass [1]): 35% | Nutsedge, Yellow plant response rating (yellow nutsedge; [5]): 5 | pest or weed control at 16 g/ha (yellow nutsedge; Cyperus, post-emergence, 16 g ai/ha, postemergence, 0 is no effect, 100 is complete control, read-out: Plant response rating (0 to 100), Nutsedge, Yellow): 5% | pest or weed control at 125 g/ha (yellow nutsedge; Cyperus, post-emergence, 125 g ai/ha, postemergence, visual rating, scale 0 to 100 (0 no effect, 100 complete control), read-out: Plant response rating, Nutsedge, Yellow): 5% | pest or weed control at 62 g/ha (yellow nutsedge; Cyperus, post-emergence, Postemergence, 62 g ai/ha, scale 0 to 100 (0 no effect, 100 complete control), read-out: Plant response rating, Nutsedge, Yellow): 5% | pest or weed control at 1000 g/ha (barnyardgrass [2]): 100% | Lambsquarters plant response rating (lambsquarters; [5]): 65 | pest or weed control at 16 g/ha (lambsquarters; Chenopodium album, post-emergence, 16 g ai/ha, postemergence, 0 is no effect, 100 is complete control, read-out: Plant response rating (0 to 100), Lambsquarters): 65% | pest or weed control at 125 g/ha (lambsquarters; Chenopodium album, post-emergence, 125 g ai/ha, postemergence, visual rating, scale 0 to 100 (0 no effect, 100 complete control), read-out: Plant response rating, Lambsquarters): 95% | pest or weed control at 62 g/ha (lambsquarters; Chenopodium album, post-emergence, Postemergence, 62 g ai/ha, scale 0 to 100 (0 no effect, 100 complete control), read-out: Plant response rating, Lambsquarters): 70% | Morningglory plant response rating (morningglory; [5]): 75 | pest or weed control at 16 g/ha (morningglory; Ipomoea, post-emergence, 16 g ai/ha, postemergence, 0 is no effect, 100 is complete control, read-out: Plant response rating (0 to 100), Morningglory): 5% | pest or weed control at 125 g/ha (morningglory; Ipomoea, post-emergence, 125 g ai/ha, postemergence, visual rating, scale 0 to 100 (0 no effect, 100 complete control), read-out: Plant response rating, Morningglory): 65% | pest or weed control at 62 g/ha (morningglory; Ipomoea, post-emergence, Postemergence, 62 g ai/ha, scale 0 to 100 (0 no effect, 100 complete control), read-out: Plant response rating, Morningglory): 75% | pest or weed control at 1000 g/ha (pigweed): 100% | plant injury at 250 g/ha (rice): 35% | pest or weed control at 1000 g/ha (barnyardgrass [3]): 100% | Oat, Wild plant response rating (wild oat; [5]): 0 | pest or weed control at 16 g/ha (wild oat; Avena fatua, post-emergence, 16 g ai/ha, postemergence, 0 is no effect, 100 is complete control, read-out: Plant response rating (0 to 100), Oat, Wild): 0% | pest or weed control at 125 g/ha (wild oat; Avena fatua, post-emergence, 125 g ai/ha, postemergence, visual rating, scale 0 to 100 (0 no effect, 100 complete control), read-out: Plant response rating, Oat, Wild): 0% | pest or weed control at 62 g/ha (wild oat; Avena fatua, post-emergence, Postemergence, 62 g ai/ha, scale 0 to 100 (0 no effect, 100 complete control), read-out: Plant response rating, Oat, Wild): 0% | pest or weed control at 250 g/ha (sedge, umbrella): 75% | pest or weed control at 16 g/ha (chickweed; 16 g ai/ha, postemergence, 0 is no effect, 100 is complete control, read-out: Plant response rating (0 to 100), Chickweed): 50% | pest or weed control at 31 g/ha (chickweed; 31 g ai/ha, postemergence, visual rating, scale 0 to 100 (0 no effect, 100 complete control), 13 to 15 days, read-out: Chickweed plant response rating): 55% | pest or weed control at 125 g/ha (chickweed; 125 g ai/ha, postemergence, visual rating, scale 0 to 100 (0 no effect, 100 complete control), read-out: Plant response rating, Chickweed): 70% | pest or weed control at 62 g/ha (chickweed; Postemergence, 62 g ai/ha, scale 0 to 100 (0 no effect, 100 complete control), read-out: Plant response rating, Chickweed): 80% | pest or weed control at 16 g/ha (barnyardgrass [4]; 16 g ai/ha, postemergence, 0 is no effect, 100 is complete control, read-out: Plant response rating (0 to 100), Barnyardgrass): 5% | pest or weed control at 31 g/ha (barnyardgrass [4]; 31 g ai/ha, postemergence, visual rating, scale 0 to 100 (0 no effect, 100 complete control), 13 to 15 days, read-out: Barnyardgrass plant response rating): 5% | pest or weed control at 125 g/ha (barnyardgrass [4]; 125 g ai/ha, postemergence, visual rating, scale 0 to 100 (0 no effect, 100 complete control), read-out: Plant response rating, Barnyardgrass): 5% | pest or weed control at 62 g/ha (barnyardgrass [4]; Postemergence, 62 g ai/ha, scale 0 to 100 (0 no effect, 100 complete control), read-out: Plant response rating, Barnyardgrass): 5% | pest or weed control at 16 g/ha (giant foxtail; 16 g ai/ha, postemergence, 0 is no effect, 100 is complete control, read-out: Plant response rating (0 to 100), Foxtail, Giant): 0% | pest or weed control at 31 g/ha (giant foxtail; 31 g ai/ha, postemergence, visual rating, scale 0 to 100 (0 no effect, 100 complete control), 13 to 15 days, read-out: Foxtail, Giant plant response rating): 5% | pest or weed control at 125 g/ha (giant foxtail; 125 g ai/ha, postemergence, visual rating, scale 0 to 100 (0 no effect, 100 complete control), read-out: Plant response rating, Foxtail, Giant): 10% | pest or weed control at 62 g/ha (giant foxtail; Postemergence, 62 g ai/ha, scale 0 to 100 (0 no effect, 100 complete control), read-out: Plant response rating, Foxtail, Giant): 5%
